Measured values published in patent publication US8003659B2, “Macrocyclic serine protease inhibitors” (Indenix Pharmaceuticals, Inc., priority 2008, dated 2011).
Read-outs that look alike come from different tables or passages of the source.

What was measured:
mutant protease A156S = experiment: Resistance profile, mutant protease A156S; assay type: biochemical, HCV; settings: ratio of inhibitory activity against mutant enzyme over non-mutant enzyme
Procedure: (§1) General procedure: Measurement of the inhibitory effect of compounds on HCV protease activity was performed with the SensoLyte™ 620 HCV Protease Assay kit from AnaSpec, Inc. (San Jose, Calif.) under conditions described by the supplier using 1.2 nM HCV NS3-NS4A protease, which was obtained according to Taremi et al. (Protein Science, 1998, 7, 2143-2149). The compounds were tested at a variety of concentrations in assay buffer containing a final DMSO concentration of 5%. Reactions were allowed to proceed for 60 min at room temperature and fluorescence measurements were recorded with a Tecan Infinity Spectrofluorimeter. The IC50 values were determined from the percent inhibition versus concentration data using a sigmoidal non-linear regression analysis based on four parameters with Tecan Magellan software.
(§2) Compounds were evaluated against three mutant proteases R155Q, A156S, and D168A, as summarized in Table 8, wherein A represents a value smaller than 1, and B represents a value between 1 to 10, and C represents a value greater than 10. The fold of change in inhibitory activity was determined by measuring the ratio of the inhibitory activity of a compound against a mutant enzyme over the inhibitory activity of the same compound against non-mutant enzyme. The inhibitory activity was determined using the procedure as described in Example 31.

[1] = Cytotoxicity evaluation (Cell Titer 96 AQueous One Solution Cell Proliferation Assay); assay type: cell-based; settings: human; GS4.1 cells, cellular viability
Procedure: (§3) For cytotoxicity evaluation, GS4.1 cells were treated with compounds as described above and cellular viability was monitored using the Cell Titer 96 AQueous One Solution Cell Proliferation Assay (Promega). CC50 values were determined from the % cytotoxicity versus concentration data with Tecan Magellan software as described above.

[2] = system: HCV genotype 2a infectious virus; experiment: HCV genotype 2a infectious virus assay; assay type: cell-based, HCV (strain JFH-1; genotype 2a); settings: Hepatitis C virus
Procedure: (§4) Compounds were tested in a HCV genotype 2a infectious virus assay and the results are summarized in Table 7, wherein A represents a value smaller than 1 μM, and B represents a value between 1 μM to 10 μM, C represents a value between 10 μM to 75 μM and D represents a value greater than 75 μM.
The HCV in vitro infection core ELISA assay measures the ability of a test compound to inhibit replication of an infectious HCV (strain JFH-1; genotype 2a) in cell culture. […] We have developed this model for determining the efficacy of antiviral compounds against an infectious virus in vitro using HCV producing cells (HPC), a proprietary Huh-7-derived cell sublineage capable of propagating the JFH-1 HCV virus. The readout of the assay is quantification of HCV core protein by ELISA 5 days post infection with JFH-1 virus and treatment with a test compound.
Ninety-six-well Corning Costar plates were seeded with HPC cells at a density of 3.0×10^3 cells per well in 50 μL of Huh-7 media. Compound stock solutions were made up freshly in Huh-7 media (DMEM (containing glucose, L-glutamine and sodium pyruvate), 10% FBS, 100 IU/mL penicillin, 100 μg/mL streptomycin, 2 mM GlutaMAX, 1% MEM non-essential amino acids) as 2× stock. Seven additional 3-fold drug dilutions were prepared from the 2× stocks in Huh-7 media. At least 4 hours after HPC cells were seeded, the media in the 96-well culture plates was aspirated and 50 μL of each drug dilution and 50 μL of JFH-1 HCV was added to each well.
At 16 hrs post treatment and infection, the virus inoculum was removed by aspiration. The cultures were treated at the same final concentrations of drug diluted to 1× in Huh-7 media to a final volume of 200 μL. Cells were incubated in the presence of drug for 4 additional days at 37° C./5% CO2.
Media was removed from the plates by aspiration. Cells were fixed with 250 μL 1:1 acetone:methanol for 90 seconds, washed once in PBS and then three times with 1×KPL wash solution. The assay plates were then blocked with 150 μL/well 10% FBS-TNE (50 mM Tris-HCl (pH 7.5; Sigma), 100 mM NaCl, 1 mM EDTA with 10% FBS) for 1 hr at room temperature. Cells were washed three times with 1×KPL wash solution and incubated with 100 μL/well anti-hepatitis C core mAb (1 mg/mL stock diluted 1:500 in 10% FBS-TNE) for 2 hours at 37° C. Cells were washed three times with 1×KPL wash solution and incubated with 100 μL/well HRP-goat anti-mouse antibody (diluted 1:2,500 in 10% FBS-TNE) for 1 hr at 37° C.
OPD solution was prepared using 1 OPD tablet+12 mL citrate/phosphate buffer (16 mM citric acid, 27 mM Na2HPO4) plus 5 μL 30% H2O2 per plate. Cells were washed three times with 1×KPL wash solution and developed with 100 μL/well OPD solution for 30 minutes in the dark at room temperature. The reaction was stopped with 100 μL/well of 2NH2SO4, and absorbance measured at A490 nm in a Victor^3 V 1420 multilabel counter (Perkin Elmer). The EC50 values for each compound were calculated from dose response curves from the resulting best-fit equations determined by Microsoft Excel and XLfit 4.1 software. The negative control for inhibition of virus replication was untreated HPC cells infected with the JFH-1 HCV virus strain. The negative ELISA control was untreated, uninfected HPC cells. The positive ELISA control was untreated HPC cells infected the JFH-1 HCV virus strain.

[3] = Cytotoxicity (CC50) in the genotype 1b replicon assay; assay type: cell-based; settings: human, genotype 1b replicon assay as described in Example 32
Procedure: as §3
as §4, with “a” for “a HCV”, “1b replicon” for “2a infectious virus”, “assay as described in Example 32” for “assay”, “6,” for “7,”

[4] = system: Huh-7 cells containing HCV Con1 subgenomic replicon (GS4.1 cells); experiment: HCV Replicon Assay (NS4A ELISA); assay type: cell-based; settings: Hepatitis C virus, Huh-7, 72 hr, NS4A protein by ELISA
In short: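 GS4.1 cells (Huh-7 with HCV Con1 subgenomic replicon) given ten 2-fold compound dilutions (top 75 μM) or a single 15 μM dose in 0.5% DMSO for 72 h at 37 °C. NS4A measured by cell ELISA (A492); EC50 from four-parameter sigmoidal fit, single-dose results as % inhibition at 15 μM.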

mutant protease R155Q = experiment: Resistance profile, mutant protease R155Q; assay type: biochemical, HCV; settings: ratio of inhibitory activity against mutant enzyme over non-mutant enzyme
Procedure: as §1, §2

HCV NS3-NS4A protease = target: T1, HCV NS3-NS4A protease (Hepatitis C virus genotype 1b, UniProt P26663); experiment: HCV Protease Assay (SensoLyte 620 HCV Protease Assay kit); assay type: biochemical; settings: 1.2 nM HCV NS3-NS4A protease, 60 min at room temperature, 5% DMSO
T1 construct: made in house
T1 sequence (P26663 1027-1208): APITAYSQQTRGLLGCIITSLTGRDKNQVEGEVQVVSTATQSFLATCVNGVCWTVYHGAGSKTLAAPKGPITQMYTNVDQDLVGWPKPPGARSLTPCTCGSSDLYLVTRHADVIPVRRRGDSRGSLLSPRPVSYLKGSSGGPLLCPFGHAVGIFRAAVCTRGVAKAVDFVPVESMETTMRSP
In short: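 Protease at 1.2 nM, run with the SensoLyte 620 fluorogenic kit under supplier conditions, with compounds at several concentrations in buffer with 5% final DMSO. Reactions ran 60 min at room temperature before fluorescence reading; IC50 from four-parameter sigmoidal fit of percent inhibition.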

mutant protease D168A = experiment: Resistance profile, mutant protease D168A; assay type: biochemical, HCV; settings: ratio of inhibitory activity against mutant enzyme over non-mutant enzyme
Procedure: as §1, §2

genotype 1b replicon = experiment: Antiviral activity in a genotype 1b replicon assay; assay type: cell-based, HCV; settings: Hepatitis C virus
Procedure: General procedure: Huh-7 cells containing HCV Con1 subgenomic replicon (GS4.1 cells) were grown in Dulbecco's Modified Eagle Medium (DMEM) supplemented with 10% fetal bovine serum (FBS), 2 mM L-glutamine, 110 mg/L sodium pyruvate, 1× non-essential amino acids, 100 U/mL penicillin-streptomycin, and 0.5 mg/mL G418 (Invitrogen). For dose-response testing, the cells were seeded in 96-well plates at 7.5×10^3 cells/well in a volume of 50 μL, and incubated at 37° C./5% CO2. Three hours after plating, 50 μL of ten 2-fold serial dilutions of compounds (highest concentration, 75 μM) were added, and cell cultures were incubated at 37° C./5% CO2 in the presence of 0.5% DMSO. Alternatively, compounds were tested at a single concentration of 15 μM. In all cases, Huh-7 cells lacking the HCV replicon served as negative control. The cells were incubated in the presence of compounds for 72 hr after which they were monitored for expression of the NS4A protein by enzyme-linked immunosorbent assay (ELISA). For this, the plates were then fixed for 1 min with acetone/methanol (1:1, v/v), washed twice with phosphate-buffered saline (PBS), 0.1% Tween 20, blocked for 1 hr at room temperature with TNE buffer containing 10% FBS and then incubated for 2 hr at 37° C. with the anti-NS4A mouse monoclonal antibody A-236 (ViroGen) diluted in the same buffer. After washing three times with PBS, 0.1% Tween 20, the cells were incubated 1 hr at 37° C. with anti-mouse immunoglobulin G-peroxidase conjugate in TNE, 10% FBS. After washing as described above, the reaction was developed with O-phenylenediamine (Zymed). The reaction was stopped after 30 min with 2 NH2SO4, and absorbance was read at 492 nm using Sunrise Tecan spectrophotometer. EC50 values were determined from the % inhibition versus concentration data using a sigmoidal non-linear regression analysis based on four parameters with Tecan Magellan software. When screening at a single concentration, the results were expressed as % inhibition at 15 μM.
as §4, with “a” for “a HCV”, “1b replicon” for “2a infectious virus”, “assay as described in Example 32” for “assay”, “6,” for “7,”

[5] = genotype 1b replicon assay as described in Example 32, read-out: EC50

Row | Structure (SMILES) | Fold-Change A156S (mutant protease A156S) | CC50 [1] | EC50 [2] | CC50 ([3]; GS4.1 cells) | EC50 [4] | Fold-Change R155Q (mutant protease R155Q) | IC50 (HCV NS3-NS4A protease) | Fold-Change D168A (mutant protease D168A) | EC50 (genotype 1b replicon) | CC50 [3] | EC50 (genotype 1b replicon; [5])
1 | COc1ccc2c(O[C@H]3C[C@H]4C(=O)N(C)CCCC/C=C\[C@@H]5C[C@@]5(C(=O)NS(=O)(=O)C5(C)CC5)NC(=O)N4C3)cc(-c3nc(C(C)C)cs3)nc2c1Cl [Compound 56d, (Z)-(4R,6S,15S,17S)-[17-[8-chloro-7-methoxy-2-(4-isopropylthiazol-2-yl)quinolin-4-yloxy]-13-N-methyl-2,14-dioxo-1,3,13-triazatricyclo[13.3.0.0]octadec-7-en-4-yl]carbonyl(1-methyl-cyclopropyl)sulfonamide] | A (A represents a value smaller than 1) | > 75000 nM | < 1000 nM | 10000 to 75000 nM | < 1000 nM | A (A represents a value smaller than 1) | < 1000 nM | C (C represents a value greater than 10) | < 1000 nM |  | 
2 | COc1ccc2c(O[C@H]3C[C@H]4C(=O)N(C)CCCC/C=C\[C@@H]5C[C@@]5(C(=O)NS(=O)(=O)C5(C)CC5)NC(=O)N4C3)cc(-c3nc(C(C)C)cs3)nc2c1C [Compound 56b, (Z)-(4R,6S,15S,17S)-[17-[7-methoxy-8-methyl-2-(4-isopropylthiazol-2-yl)quinolin-4-yloxy]-13-N-methyl-2,14-dioxo-1,3,13-triazatricyclo[13.3.0.0]octadec-7-en-4-yl]carbonyl(1-methyl-cyclopropyl)sulfonamide] | A (A represents a value smaller than 1) | > 75000 nM | 1000 to 10000 nM |  | < 1000 nM | A (A represents a value smaller than 1) | < 1000 nM | C (C represents a value greater than 10) |  | 10000 to 75000 nM | < 1000 nM
3 | COc1ccc2c(O[C@H]3C[C@H]4C(=O)N(C)CCCC/C=C\[C@@H]5C[C@@]5(C(=O)NS(=O)(=O)C5CC5)NC(=O)N4C3)cc(-n3ccc(C(F)(F)F)n3)nc2c1Cl [Compound 91e, (Z)-(4R,6S,15S,17S)-[17-[8-chloro-7-methoxy-2-(3-trifluoromethyl-1H-pyrazol-1-yl)quinolin-4-yloxy]-13-N-methyl-2,14-dioxo-1,3,13-triazatricyclo[13.3.0.0]octadec-7-ene-4-yl]carbonyl(cyclopropyl)sulfonamide] | A (A represents a value smaller than 1) | > 75000 nM | < 1000 nM | 10000 to 75000 nM | < 1000 nM | A (A represents a value smaller than 1) | < 1000 nM | C (C represents a value greater than 10) |  |  | < 1000 nM
